Several values for one entry are separate records, joined by “and”; a condition that tells them apart may be missing. Identical values can stand only once. Marks after values point to notes of the source that are not given here.
How the values were obtained:
Format in all cases: cell-based
Details in all cases: 100 μg/ml, 3 days incubation
[1] = test system: normal human dermal fibroblast cultures; assay: Collagen neosynthesis: tritiated proline incorporation into secreted collagens (culture medium, >30 kD)
Description: The effect of purified lactones on the synthesis of collagens in normal human dermal fibroblast cultures was studied. Collagyens are quantitatively the major dermal proteins. Proline and hydroxyproline constitute 30% of the constituent amino acids of collagens (a high percentage and much higher than that of the majority of other fibroblast proteins). Hydroxyproline is not an amino acid incorporated during the synthesis of collagens, as is the case with proline. Hydroxylation of proline, which leads to the presence of hydroxyproline in collagens, is a collagen maturation process which occurs once synthesis is complete. […] Collagen neosynthesis was measured by monitoring the incorporation of radiolabelled proline into newly synthesised fibroblast proteins. […] Fractions (1) and (2) were measured together and grouped under the title “cell layer collagens”. […] Measurement of incorporation of tritiated proline into “secreted collagens”: the incorporation of tritiated proline into neosynthesised collagens secreted in the culture medium was evaluated after 3 days of incubation. […] The radioactivity of the high molecular weight protein fraction (retained on the filters) corresponded almost exclusively to the secreted collagens and was measured by liquid scintillation with a β particle counter. […]

[2] = test system: normal human dermal fibroblast cultures; assay: Protein content of fibroblast cell layers (cell division), Coomassie Blue/Bradford
Description: The effects of the product on cell division were evaluated by measuring the DNA and proteins in the cell layers after 3 days of incubation. Fibroblasts were isolated from the operative residue of abdominal plastic surgery carried out on a person. The cells were cultivated in fibroblast culture medium (FCM) at 37° C. in a moist atmosphere containing 5% of CO2 until confluence of the monolayers. The culture medium used was fibroblast culture medium (FCM), constituted by MEM/M199 (¾, ¼, v/v) with added penicillin (50 IU/ml), streptomycin (50 μg/ml), sodium bicarbonate (0.2%, wv/v) and SVF (10%, v/v). The fibroblast incubation medium (FIM) with the products was constituted by MEM/M199 (¾, ¼, v/v) with added penicillin (50 IU/ml), streptomycin (50 μg/ml), sodium bicarbonate (0.2%, w/v) and SVF (2%, v/v). It contained 1 μCi/ml of tritiated proline. The purified lactone fraction was diluted in FIM and was tested at 0.02, 0.08 and 0.4 μg/ml (dry matter). The unrefined sophorolipids were tested at 0.08; 0.4 and 2 μg/ml. The ascorbic acid was tested at 100 μg/ml (0.5 mM) in FIM. The fibroblast cultures were incubated for 3 days at 37° C. in a moist atmosphere containing 5% of CO2. Reference cultures, incubated in the absence of the products to be tested, were produced in parallel. The tests were carried out in triplicate. […]

[3] = test system: normal human dermal fibroblast cultures; assay: Collagen neosynthesis: tritiated proline incorporation into cell layer collagens
Description: The effect of purified lactones on the synthesis of collagens in normal human dermal fibroblast cultures was studied. Collagyens are quantitatively the major dermal proteins. Proline and hydroxyproline constitute 30% of the constituent amino acids of collagens (a high percentage and much higher than that of the majority of other fibroblast proteins). Hydroxyproline is not an amino acid incorporated during the synthesis of collagens, as is the case with proline. Hydroxylation of proline, which leads to the presence of hydroxyproline in collagens, is a collagen maturation process which occurs once synthesis is complete. Measuring the incorporation of tritiated proline into fibroblast proteins thus provides a good index of collagen neosynthesis. […] Collagen neosynthesis was measured by monitoring the incorporation of radiolabelled proline into newly synthesised fibroblast proteins. […] Fractions (1) and (2) were measured together and grouped under the title “cell layer collagens”. […] Measurement of incorporation of tritiated proline into “cell layer collagens” the incorporation of tritiated proline into neosynthesised fibroblast proteins, the proteins present in the cells and deposited in the extracellular matrix, was evaluated after 3 days of incubation. The radioactivity of the cell lysate obtained as described above was measured by liquid scintillation with a β particle counter. […]

[4] = test system: normal human dermal fibroblasts; assay: DNA content of fibroblast cell layers (cell division), HOECHST 33258 fluorimetry
Description: The effects of the product on cell division were evaluated by measuring the DNA and proteins in the cell layers after 3 days of incubation. Fibroblasts were isolated from the operative residue of abdominal plastic surgery carried out on a person. The cells were cultivated in fibroblast culture medium (FCM) at 37° C. in a moist atmosphere containing 5% of CO2 until confluence of the monolayers. The culture medium used was fibroblast culture medium (FCM), constituted by MEM/M199 (¾, ¼, v/v) with added penicillin (50 IU/ml), streptomycin (50 μg/ml), sodium bicarbonate (0.2%, wv/v) and SVF (10%, v/v). The fibroblast incubation medium (FIM) with the products was constituted by MEM/M199 (¾, ¼, v/v) with added penicillin (50 IU/ml), streptomycin (50 μg/ml), sodium bicarbonate (0.2%, w/v) and SVF (2%, v/v). It contained 1 μCi/ml of tritiated proline. The purified lactone fraction was diluted in FIM and was tested at 0.02, 0.08 and 0.4 μg/ml (dry matter). The ascorbic acid was tested at 100 μg/ml (0.5 mM) in FIM. The fibroblast cultures were incubated for 3 days at 37° C. in a moist atmosphere containing 5% of CO2. Reference cultures, incubated in the absence of the products to be tested, were produced in parallel. The tests were carried out in triplicate. After incubation, the incubation media were removed then the cell layers were rinsed with PBS The cells were then lysed by ultrasound. The DNA was assayed using a fluorimetric method using HOECHST 33258 reactant. The proteins in the cell lysate were assayed using the Coomassie Blue method described by Bradford. These assays ensured a suitable interpretation of the results obtained for collagen neosynthesis. Treatment of data: the groups of data (reference group and treated groups) were processed by a one-way variance analysis (ANOVA 1, p<0.05) followed by a Dunnett test (p<0.05). The effect of the products was thus compared with the control group.

Structure (SMILES): O=C1O[C@H]([C@@H](O)CO)C(O)=C1O [Ascorbic acid, ascorbic acid]
- Secreted collagens (culture medium) [1]: 181%* % of control
- Increase of secreted collagens, factor ([1]; factor versus control): 1.81
- Proteins in cell layer [2]: 108 % of reference
- Cell layer collagens [3]: 168%* % of control
- Increase of cell layer collagens, factor ([3]; factor versus control): 0.68
- DNA content, percentage of control [4]: 90 percentage of control
- DNA content, mean ([4]; mean of triplicate): 7.5 μg/cell layer
- DNA content, individual culture ([4]; single replicate): 10 μg/cell layer and 6 μg/cell layer (2×)

Source: US6596265B1, “Use of sophorolipids comprising diacetyl lactones as agent for stimulating skin fibroblast metabolism” (Institut Français du Pétrole, priority 1998, dated 2003)
